The source of these data is patent US20170273917A1, “NMDA RECEPTOR ANTAGONISTS FOR TREATING GAUCHER DISEASE” (Yeda Research and Development Co. Ltd., priority 2014, published 2017).

Each structure is given as a SMILES string.

Assay [1] relates to NMDA receptor. The assay can be described thus: Survival of CBE-treated mice given NMDA receptor agonists or antagonists. It counts as in vivo, mouse. An excerpt:
(§1) Mice—Pure inbred mouse strains were obtained from the Jackson laboratories (USA), Harlan UK and Harlan Israel. Specifically, BTBR T^+ Itpr3^tf/J C3H/HeJ, DBA/2J, MRL/MpJ, WSB/EiJ, MOLF/Ei, PWD/PhJ, KK/HiJ, BPL/1J, I/LnJ, BPN/3J, and LP/J were obtained from Jackson; A/J, AKR/J, NZW/LacJ, 129S1/SvImJ were obtained from Harlan laboratories in the UK; and C57BL/6JOlaHsd, BALB/cJ and FVB/NJ were obtained from the Harlan laboratories in Israel. Gba^flox/flox; nestin-Cre mice, a mouse model of GD were generated as described in Vitner et al. Nature Medicine (2014) 20: 204-208; and Enquist, I. B. et al. Proc. Natl. Acad. Sci. USA (2007) 104: 17483-17488. These mice recapitulate many features of human nGD, although their Gba1 deficiency is restricted to neural and macroglial lineages. Mice were maintained under specific pathogen-free conditions and handled according to protocols approved by the Weizmann Institute Animal Care Committee according to international guidelines.
CBE injections—Conduritol-β-epoxide (CBE) was obtained from Calbiochem Millipore (Darmstadt, Germany). CBE at a dose of 25 mg or 50 mg per kg body weight per day or PBS (control) were administered i.p. to mice daily starting from postnatal day 8 (P8) of age.
(§2) Treatment with NMDA receptor agonists and antagonists—All agonists and antagonists were administered daily from P8. D-cycloserine (Sigma) was administered daily at a dose of 200 mg/kg/day. MK-801 (Sigma) was administered daily at a dose of 0.3 mg/Kg/day. Memantine (Sigma) was administered daily at a dose of 3 or 30 mg/Kg/day. Ifenprodil (Sigma) was administered daily at a dose of 9 mg/Kg/day.

For assay [2], the system named is motor coordination of CBE-treated mice. The assay can be described thus: Locomotor testing by the hanging wire test. It is filed as in vivo, mouse. An excerpt:
Locomotor testing—Locomotor coordination was weekly evaluated in the treated strains by the hanging wire test, a validated test for LSD mouse models (Alvarez et al. 2008). Briefly, the mouse was placed with forepaws at a center of a horizontal bar (3 mm diameter; 35 mm long).
To further characterize the effect of CBE treatment on the different strains, motor behavior was followed weekly using the hanging wire test, starting at postnatal day 21 for a period of 2 months. The hanging wire test evaluates coordination and locomotor function, wherein a high score means better coordination. […] Of note, strains PWD/PhJ and WSB/EiJ were excluded in the motor behavior analysis due to their wild behavior.

The target in the next assay is T1, GBA1 (Mus musculus, UniProt P17439).
T1 construct: from tissue; host or cells: mouse brain (frozen half-brain homogenate) of inbred strains treated in vivo with PBS, CBE or CBE plus memantine
T1 sequence (P17439 20-515): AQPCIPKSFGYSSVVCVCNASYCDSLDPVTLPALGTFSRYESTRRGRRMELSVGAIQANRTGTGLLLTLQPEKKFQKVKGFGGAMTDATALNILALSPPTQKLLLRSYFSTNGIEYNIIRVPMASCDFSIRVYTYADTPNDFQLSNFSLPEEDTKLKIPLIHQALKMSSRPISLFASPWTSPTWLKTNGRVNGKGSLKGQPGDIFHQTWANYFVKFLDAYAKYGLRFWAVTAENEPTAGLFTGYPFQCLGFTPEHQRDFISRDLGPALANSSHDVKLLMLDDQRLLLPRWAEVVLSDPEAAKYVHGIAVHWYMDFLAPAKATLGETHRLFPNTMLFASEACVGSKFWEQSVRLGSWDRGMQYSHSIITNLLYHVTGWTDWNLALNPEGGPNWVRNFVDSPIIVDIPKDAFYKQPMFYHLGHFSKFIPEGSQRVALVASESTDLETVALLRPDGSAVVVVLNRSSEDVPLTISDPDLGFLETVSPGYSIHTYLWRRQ
The assay can be described thus: GBA1 activity assay in brain homogenates of treated mice. It counts as in vivo. Particulars: A/J mice, CBE plus memantine. As for the experimental part:
GBA1 activity assay—GBA1 activity was performed as previously described (Farfel-Becker et al. Hum Mol Genet. 2014; 23(4):843-54). Briefly, frozen half-brain samples were sonicated in Mcllvaine's buffer (0.1 M citric acid, pH 4.2, 0.2 M Na2HPO4, 29:21, vol:vol). Tissue homogenates containing 50 μg of protein were incubated at 37° C. with 8 μM C6-NBD-GlcCer (Avanti Polar Lipids, Alabaster, Ala., USA) in a final volume of 25 μl Mcllvaine's buffer for 30 minutes. Lipids were extracted and the lower phase separated by thin layer chromatography using chloroform:methanol:9.8 mM CaCl2 (60:35:8, vol:vol:vol) as the developing solvent. C6-NBD-ceramide was identified with an authentic standard using a Typhoon 9410 variable mode imager and bands were quantified by Image-QuantTL (GE Healthcare, Chalfont St Giles, UK).
To eliminate the possibility that the phenotypic differences observed in the different mouse strains were caused by differential CBE metabolism in the brain, GBA1 enzymatic activity in mice treated for 10 days with CBE or PBS (control) was measured. […] Overall, the remaining GBA1 activity was 5-10% of the controls (FIG. 3A). There was no correlation between GBA1 activity in the brain and life spans neither in the PBS(R^2=0.126, data not shown) nor CBE conditions (R^2=0.0581, FIG. 3B). In addition, no correlation was found between inhibition of GBA1 activity and life span when evaluated according to strains (R^2=0.0085, data not shown).

Assay [3] relates to NMDA receptor. The assay can be described thus: Survival of Gba flox/flox; nestin-Cre mice (genetic nGD model) treated with memantine. It is filed as in vivo, mouse. Particulars: memantine 3 or 30 mg/kg day from P8 vs PBS.
Source text: as §1, §2

In the case of `CC(C(O)c1ccc(O)cc1)N1CCC(Cc2ccccc2)CC1.O=C(O)C(O)C(O)C(=O)O` (stereo not drawn) [Ifenprodil, α-(4-Hydroxyphenyl)-β-methyl-4-benzyl-1-piperidineethanol (+)-tartrate salt], the life spans result in the assay on NMDA receptor [1] (Ifenprodil 9 mg/Kg/day, CBE (25 mg/kg day)-treated A/J mice, daily from P8) is listed as “showed increments in the life spans”.

For `CC12CC3CC(C)(C1)CC(N)(C3)C2.Cl` [Memantine, 3,5-Dimethyl-1-adamantanamine hydrochloride], in assay [2] (A/J mice, CBE plus memantine), the “progression of the motor dysfunction induced by CBE (hanging wire test)” value is on record as “delayed the progression of the motor dysfunction”. Also, the “hanging wire test score” value in assay [2] (memantine-treated CBE mice at postnatal day 49) was “the same score as CBE-treated mice at P21”. For the same compound, on GBA1 (brains harvested P18 or P70), the “interference with GBA1 inhibition in the brain” value is recorded as “did not interfere with GBA1 inhibition”. Further, at GBA1 (postnatal day 70 (P70)), the “cerebral GBA1 activity” value is given as “almost undetectable”. The survival entry in the assay on NMDA receptor [3] was “significantly extended survival”; in the assay with NMDA receptor [1] (memantine 30 mg/kg/day, CBE 50 mg/kg/day, AJ mice, daily from P8), “significantly extended survival”. Moreover, the life span result with NMDA receptor [1] (memantine 3 mg/kg day plus CBE 25 mg/kg day, A/J, C3H/HeJ, DBA/2J and C57BL6/JolaHsd mice, daily from P8) was “significantly extended the life span”. In the assay on NMDA receptor [1] (neuropathic GD (CBE-treated) mice), the “increase of life span compared with MK-801” value was “to a greater extent than MK-801”.

`C[C@]12N[C@H](Cc3ccccc31)c1ccccc12` [MK-801]: in the assay on NMDA receptor [1] (MK-801 0.3 mg/Kg/day, CBE-treated (25 mg/Kg/day) C3H mice, daily from P8), the survival entry is on record as “extended the survival”.

Consider `N[C@@H]1CONC1=O` [D-cycloserine], for which the life spans entry with NMDA receptor [1] (D-cycloserine 200 mg/kg/day, CBE-treated (25 mg/kg day) long living strains BALB/cJ, FVB/NJ, 129S1/SvImJ, BTBR T+ Itpr3tf/J, daily from P8) is reported as “reduced the life spans”.
